For this test, the system named is patients suspected of having stunned or hibernating myocardium. The test can be described thus: Dobutamine echocardiography, regional wall motion during D-Ribose or placebo infusion (randomized, double-blind, crossover clinical trial). Type of test: in vivo. Particulars: during low-dose dobutamine infusion (5μ/kg/minute); D-Ribose 10% in water iv at 180 mg/kg/hour; 25 patients, 16 left ventricular segments each. The procedure:
A single-center, randomized, double-blind placebo-controlled clinical trial was carried out to evaluate the safety and efficacy of D-Ribose on myocardial wall motion during echocardiographic examination in patients suspected of having stunned or hibernating myocardium. Patients were randomized into placebo and ribose groups according to a computer generated randomization schedule. The identity of the contents was blinded to the investigator. Patients were identified by initials. The selected study population was comprised of 25 patients (22 men and 3 women) with a mean age of 57+/−11 years. All had reduced left ventricular systolic function (mean ejection fraction 30+/−8%, range 18 to 48%). Twenty-two patients (88%) had prior myocardial infarction and only one subject was evaluated after recent (<4 weeks) infarction. […] Post-infusion images were recorded approximately eight minutes after discontinuation of dobutamine. […] Parasternal long and short-axis and apical two and four-chamber images were recorded on 0.5 inch videotape and digitally stored on floppy discs using a Nova MicroSonics DCR or Colorvue system (Mahwah, N.J.). […]

Each structure is given as a SMILES string.

Regarding `O=C[C@H](O)[C@H](O)[C@H](O)CO` [D-Ribose], the “segments in which wall motion improved” value is 65 segments.
